Common to all, as to assay: DTP human tumour cell line panel, 48 h
For assay [1], the system named is SNB-75.
The test system of assay [2] is A549.
For assay [3], the system named is SF-295.
The subject of assay [4] is DU-145.
Assay [5] deals with T47D.
Assay [6] relates to NCI-H522.
Assay [7] deals with SF-539.
Assay [8] concerns RPMI-8226.
Assay [9] deals with HL-60.
Assay [10] deals with U-251.
In assay [11] the test system is UO-31.
The test system of assay [12] is EKVX.
Assay [13] relates to HCC 2998.
In assay [14] the test system is SK-OV-3.
Assay [15] has as its system Hs-578T.
For assay [16], the system named is TK-10.
The subject of assay [17] is MCF7.
For assay [18], the system named is PC-3.
Assay [19] concerns OVCAR-5.

The structures appear in SMILES notation.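 A five-concentration, 48-hour dose response in 96-well plates underlies each endpoint, interpolated linearly between surrounding concentrations. GI50: concentration for 50% inhibition of growth.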 Calls of active or inactive are those of the source. Rule as the data show it: active = GI50 up to about 1.1 µM and inactive = higher. Where only a bound is given, the exact number is not on record here.

Usually GI50 stands for the concentration giving 50% growth inhibition. As to `O=C(c1cc2c(c3ccccc13)NC1(CCCCC1)N=C2C(F)(F)F)C(F)(F)F`, the GI50 in assay [1] was 4.7 µM (inactive); in assay [2], 4.35 µM (inactive); in assay [3] it was 3.2 µM (inactive); in [4], 5.35 µM (inactive); in assay [5] it was 2.93 µM (inactive); in assay [6], 2.65 µM (inactive). The GI50 in assay [7] is 2.53 µM (inactive); in [8] it was 3.47 µM (inactive); in [9] it was 2.9 µM (inactive); in assay [10], 3.78 µM (inactive); in assay [11] it was 3.62 µM (inactive); in assay [12], 4.82 µM (inactive). The GI50 was 2.29 µM (inactive) in assay [13]; 5.61 µM (inactive) in [14]; 6.32 µM (inactive) in assay [15]; 4.01 µM (inactive) in assay [16]; 3.63 µM (inactive) in assay [17]; 3.68 µM (inactive) in [18]. In [19], the GI50 is 8.83 µM (inactive).

With `CCCCc1ccc(-n2sc3ncccc3c2=O)cc1`, the GI50 was 22.4 µM (inactive) in assay [1]; 14 µM (inactive) in assay [2]; 12.6 µM (inactive) in assay [3]; 21 µM (inactive) in assay [4]; 13 µM (inactive) in assay [5]; 2.58 µM (inactive) in assay [6]. Also, the GI50 is 21 µM (inactive) in assay [7]; 8.02 µM (inactive) in assay [8]; 0.908 µM (active) in assay [9]; 15.1 µM (inactive) in assay [10]; 11.3 µM (inactive) in assay [11]; 11.1 µM (inactive) in [12]. Also, the GI50 in assay [13] was 5.35 µM (inactive); in assay [14] it was 26.9 µM (inactive); in assay [15], 15.7 µM (inactive); in [16], 14.4 µM (inactive); in assay [17] it was 23.8 µM (inactive); in assay [18], 11 µM (inactive). Moreover, the GI50 in assay [19] is 18.5 µM (inactive).

For `COc1cc(C2c3[nH]c4ccccc4c3[C@@H](Nc3ccc(C#N)cc3)[C@H]3COC(=O)N23)cc(OC)c1O` (some centres undefined), the GI50 in assay [1] was 0.227 µM (active); in [2] it was 0.113 µM (active); in assay [3] it was 0.164 µM (active); in [4], 0.252 µM (active); in assay [5], 0.345 µM (active); in assay [6] it was 0.175 µM (active). The 50% growth inhibitory concentration (GI50) in assay [7] is 0.0618 µM (active); in [8], 0.144 µM (active); in [9], 0.0399 µM (active); in assay [10], 0.175 µM (active); in [11], 0.802 µM (active); in assay [12] it was 0.851 µM (active). Also, the GI50 in assay [13] is 0.239 µM (active); in [14], 0.254 µM (active); in assay [15], 0.265 µM (active); in [16] it was 0.335 µM (active); in assay [17], 0.16 µM (active); in assay [18] it was 0.462 µM (active). Further, the GI50 in [19] was 0.316 µM (active).

Turning to `N/C(=N\Nc1ccc(C(=O)O)cc1)c1cnccn1`, the GI50 in assay [1], in assay [2], in [3], in assay [4], in assay [5] and in assay [6] was > 100 µM (inactive) each time. The GI50 in [7] was > 100 µM (inactive); in assay [8], > 100 µM (inactive); in assay [9] it was < 0.01 µM (active); in assay [10] it was > 100 µM (inactive); in assay [11], > 100 µM (inactive); in assay [12], > 100 µM (inactive). Further, the GI50 in assay [13], in assay [14], in assay [15], in assay [16], in [17] and in assay [18] was > 100 µM (inactive) throughout. Besides, the GI50 in assay [19] was > 100 µM (inactive).

Turning to `O=C1c2cccnc2-c2nccc3c2c1nc1ccc(Br)cc13`, the GI50 in assay [1] was 0.129 µM (active); in assay [2] it was 0.188 µM (active); in assay [3], 0.0401 µM (active); in [4] it was 0.0225 µM (active); in [5] it was 0.0789 µM (active); in assay [6] it was 0.0528 µM (active). For the same molecule, the GI50 in assay [7] is 0.0601 µM (active); in assay [8], 0.0347 µM (active); in assay [9], 0.0184 µM (active); in [10], 0.0363 µM (active); in assay [11], 0.0557 µM (active); in assay [12], 0.0948 µM (active). The concentration for 50% growth inhibition (GI50) is 0.164 µM (active) in [13]; 0.145 µM (active) in assay [14]; 0.12 µM (active) in [15]; 0.273 µM (active) in assay [16]; < 0.0162 µM (active) in assay [17]; 0.0426 µM (active) in [18]. In addition, in assay [19], the GI50 is 0.106 µM (active).

On to `CCCCCCCCCCCCCCC(C(=O)[O-])[n+]1ccccc1` (centres undefined), for which the GI50 in assay [1], in [2], in [3], in assay [4], in [5] and in [6] was > 100 µM (inactive) in each case. The GI50 is > 100 µM (inactive) in assay [7]; > 100 µM (inactive) in assay [8]; 98.4 µM (inactive) in assay [9]; 28.6 µM (inactive) in [10]; > 100 µM (inactive) in [11]; > 100 µM (inactive) in assay [12]. The GI50 is 97.3 µM (inactive) in [13]; > 100 µM (inactive) in assay [14]; > 100 µM (inactive) in assay [15]; 15.1 µM (inactive) in assay [16]; 16.1 µM (inactive) in assay [17]; 18.8 µM (inactive) in assay [18]. Also, the GI50 in assay [19] is 84.1 µM (inactive).

`Cc1c([N+](=O)[O-])oc2ccc3ccccc3c12`: the GI50 in assay [1] is 28.5 µM (inactive); in [2] it was 66.1 µM (inactive); in assay [3], 58.1 µM (inactive); in assay [4], 7.74 µM (inactive); in assay [5], 61.1 µM (inactive); in assay [6], 3.86 µM (inactive). Moreover, the GI50 in assay [7] is 28.2 µM (inactive); in assay [8], 9.33 µM (inactive); in assay [9], 3.18 µM (inactive); in [10], 65.6 µM (inactive); in [11] it was 34.6 µM (inactive); in assay [12], 23 µM (inactive). Besides, the GI50 in [13] was 25.1 µM (inactive); in assay [14], 20.8 µM (inactive); in [15], > 100 µM (inactive); in assay [16] it was 37.8 µM (inactive); in [17], 10.3 µM (inactive); in assay [18], 86.9 µM (inactive). Besides, the GI50 in assay [19] was > 100 µM (inactive).

Turning to `O=[N+]([O-])c1cc(Br)cc2cc(Cl)cnc12`, the GI50 in [1] is 31.8 µM (inactive); in assay [2], > 100 µM (inactive); in assay [3] it was 70.6 µM (inactive); in [4], > 100 µM (inactive); in assay [5], 39.8 µM (inactive); in assay [6], > 100 µM (inactive). Further, the GI50 was > 100 µM (inactive) in [7]; > 100 µM (inactive) in [8]; 57.8 µM (inactive) in assay [9]; > 100 µM (inactive) in [10]; > 100 µM (inactive) in assay [11]; > 100 µM (inactive) in [12]. Besides, the GI50 was > 100 µM (inactive) in assay [13]; 86.9 µM (inactive) in [14]; 36.9 µM (inactive) in assay [15]; > 100 µM (inactive) in [16]; 35.5 µM (inactive) in assay [17]; > 100 µM (inactive) in assay [18]. Besides, the GI50 in [19] is > 100 µM (inactive).

With `CN(CCNC(=O)c1n[nH]c2c1ccc1ccccc12)CCNC(=O)c1n[nH]c2c1ccc1ccccc12`, the GI50 is 1.85 µM (inactive) in assay [1]; 2.07 µM (inactive) in assay [2]; 1.81 µM (inactive) in assay [3]; 2.49 µM (inactive) in assay [4]; 2.42 µM (inactive) in assay [5]; 1.95 µM (inactive) in assay [6]. The GI50 is 1.79 µM (inactive) in [7]; 2.18 µM (inactive) in assay [8]; 2.75 µM (inactive) in assay [9]; 1.93 µM (inactive) in assay [10]; 7.35 µM (inactive) in [11]; 1.63 µM (inactive) in [12]. For the same molecule, the GI50 in assay [13] is 1.91 µM (inactive); in [14] it was 4.79 µM (inactive); in assay [15], 1.96 µM (inactive); in assay [16] it was 2.25 µM (inactive); in [17] it was 1.87 µM (inactive); in assay [18], 2.49 µM (inactive). In addition, the GI50 in assay [19] was 1.81 µM (inactive).

For the molecule `O=c1[nH]c(Cc2ccccc2)nc2c1sc1nc3ccccc3n12`, the GI50 in [1] is > 100 µM (inactive); in assay [2], > 100 µM (inactive); in [3], > 100 µM (inactive); in [4] it was > 100 µM (inactive); in assay [5] it was 60.5 µM (inactive); in assay [6] it was > 100 µM (inactive). The GI50 in [7], in assay [8], in assay [9], in assay [10], in assay [11] and in [12] was > 100 µM (inactive) throughout. Moreover, the GI50 in assay [13], in assay [14], in [15], in assay [16], in [17] and in assay [18] was > 100 µM (inactive) each time. Also, the GI50 in [19] is > 100 µM (inactive).

On to `CC(=O)Nc1ccc2c3c(cc(O)c2c1)N(C(=O)CCCCCCC(=O)Nc1ccc2c4c(cc(O)c2c1)N(C(=O)OC(C)(C)C)CC4CCl)CC3CCl` (centres undefined), for which the GI50 is 0.0776 µM (active) in assay [1]; 0.195 µM (active) in assay [2]; 0.0776 µM (active) in assay [3]; 0.0211 µM (active) in assay [4]; 0.0573 µM (active) in assay [5]; 0.0387 µM (active) in assay [6]. For the same molecule, the GI50 in assay [7] was 0.0637 µM (active); in [8], 0.0877 µM (active); in assay [9] it was < 0.0108 µM (active); in assay [10] it was 0.0205 µM (active); in [11], 1.04 µM (active); in assay [12], 0.304 µM (active). The GI50 in assay [13] is 0.0502 µM (active); in assay [14], 0.0705 µM (active); in [15] it was 0.264 µM (active); in assay [16], 0.344 µM (active); in assay [17], < 0.01 µM (active); in assay [18], 0.105 µM (active). The GI50 in assay [19] was 0.109 µM (active).

The record behind these values is ChEMBL document CHEMBL1201862, “PubChem BioAssay data set” (2004).
